This note sets out measurements from ChEMBL document CHEMBL1201862, “PubChem BioAssay data set” (2004).

One assay deals with T1, Hexokinase HKDC1 (Homo sapiens, UniProt Q2TB90).
T1 sequence (Q2TB90 whole entry): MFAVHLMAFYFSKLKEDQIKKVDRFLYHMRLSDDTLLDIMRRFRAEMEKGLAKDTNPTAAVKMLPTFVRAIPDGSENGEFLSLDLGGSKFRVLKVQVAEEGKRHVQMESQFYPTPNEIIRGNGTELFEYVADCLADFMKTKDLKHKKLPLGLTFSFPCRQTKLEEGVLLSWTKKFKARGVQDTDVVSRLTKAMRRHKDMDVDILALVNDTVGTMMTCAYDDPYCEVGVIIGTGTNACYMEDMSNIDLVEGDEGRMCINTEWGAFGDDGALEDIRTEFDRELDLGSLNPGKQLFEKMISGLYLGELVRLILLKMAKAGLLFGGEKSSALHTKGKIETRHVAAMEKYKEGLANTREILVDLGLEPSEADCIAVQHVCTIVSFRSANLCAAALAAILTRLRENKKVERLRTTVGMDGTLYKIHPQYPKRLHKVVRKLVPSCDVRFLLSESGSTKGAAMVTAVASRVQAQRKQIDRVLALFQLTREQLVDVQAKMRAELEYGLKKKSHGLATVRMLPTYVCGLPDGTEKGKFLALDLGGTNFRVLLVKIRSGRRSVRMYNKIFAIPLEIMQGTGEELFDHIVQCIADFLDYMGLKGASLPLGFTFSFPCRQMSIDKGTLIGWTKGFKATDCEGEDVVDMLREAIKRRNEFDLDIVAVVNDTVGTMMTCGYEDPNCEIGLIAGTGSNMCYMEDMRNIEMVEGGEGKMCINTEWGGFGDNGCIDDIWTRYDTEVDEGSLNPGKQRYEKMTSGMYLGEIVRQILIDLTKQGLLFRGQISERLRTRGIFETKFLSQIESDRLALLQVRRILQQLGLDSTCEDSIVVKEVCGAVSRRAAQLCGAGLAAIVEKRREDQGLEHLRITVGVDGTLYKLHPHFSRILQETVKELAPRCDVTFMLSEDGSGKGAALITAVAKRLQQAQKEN
As to the kind of experiment: HKDC1 hexokinase activators, dose response, biochemical, W721R variant (AID 504730). It is filed as functional.

A further assay has as its target T2, Hexokinase-1 (Homo sapiens, UniProt P19367).
T2 sequence (P19367 whole entry): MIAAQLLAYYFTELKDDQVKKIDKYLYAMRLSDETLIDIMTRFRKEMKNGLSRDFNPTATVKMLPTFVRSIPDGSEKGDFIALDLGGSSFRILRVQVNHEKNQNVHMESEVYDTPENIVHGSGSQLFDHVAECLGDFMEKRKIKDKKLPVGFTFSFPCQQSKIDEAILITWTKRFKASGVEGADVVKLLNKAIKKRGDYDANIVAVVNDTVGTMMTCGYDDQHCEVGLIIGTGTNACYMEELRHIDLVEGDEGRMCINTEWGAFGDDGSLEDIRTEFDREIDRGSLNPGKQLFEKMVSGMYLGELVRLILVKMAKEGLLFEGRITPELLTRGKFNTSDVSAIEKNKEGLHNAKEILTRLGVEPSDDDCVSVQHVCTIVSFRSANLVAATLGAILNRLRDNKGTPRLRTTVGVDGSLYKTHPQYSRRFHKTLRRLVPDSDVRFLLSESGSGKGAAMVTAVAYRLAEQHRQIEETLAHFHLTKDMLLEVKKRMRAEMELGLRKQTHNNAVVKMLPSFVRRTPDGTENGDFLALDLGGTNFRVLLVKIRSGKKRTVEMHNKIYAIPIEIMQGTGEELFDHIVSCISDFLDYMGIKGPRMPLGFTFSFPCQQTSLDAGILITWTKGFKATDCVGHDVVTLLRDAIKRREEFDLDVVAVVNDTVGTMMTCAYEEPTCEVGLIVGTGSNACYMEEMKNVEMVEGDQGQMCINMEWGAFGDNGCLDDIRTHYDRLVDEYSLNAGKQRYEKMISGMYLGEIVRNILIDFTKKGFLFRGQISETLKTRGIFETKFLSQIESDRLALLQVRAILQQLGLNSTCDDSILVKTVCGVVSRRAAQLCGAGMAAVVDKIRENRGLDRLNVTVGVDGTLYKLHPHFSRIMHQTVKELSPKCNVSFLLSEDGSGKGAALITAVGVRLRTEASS
Description: hexokinase 1 activators, dose response, selectivity assay for HKDC1 activator project, biochemical (AID 504762). It is filed as functional.

The target in a further assay is T3, Estrogen receptor (Homo sapiens, UniProt P03372).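 Further: potency for inhibiting coactivator peptide recruitment to the receptor.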
T3 sequence (P03372 whole entry): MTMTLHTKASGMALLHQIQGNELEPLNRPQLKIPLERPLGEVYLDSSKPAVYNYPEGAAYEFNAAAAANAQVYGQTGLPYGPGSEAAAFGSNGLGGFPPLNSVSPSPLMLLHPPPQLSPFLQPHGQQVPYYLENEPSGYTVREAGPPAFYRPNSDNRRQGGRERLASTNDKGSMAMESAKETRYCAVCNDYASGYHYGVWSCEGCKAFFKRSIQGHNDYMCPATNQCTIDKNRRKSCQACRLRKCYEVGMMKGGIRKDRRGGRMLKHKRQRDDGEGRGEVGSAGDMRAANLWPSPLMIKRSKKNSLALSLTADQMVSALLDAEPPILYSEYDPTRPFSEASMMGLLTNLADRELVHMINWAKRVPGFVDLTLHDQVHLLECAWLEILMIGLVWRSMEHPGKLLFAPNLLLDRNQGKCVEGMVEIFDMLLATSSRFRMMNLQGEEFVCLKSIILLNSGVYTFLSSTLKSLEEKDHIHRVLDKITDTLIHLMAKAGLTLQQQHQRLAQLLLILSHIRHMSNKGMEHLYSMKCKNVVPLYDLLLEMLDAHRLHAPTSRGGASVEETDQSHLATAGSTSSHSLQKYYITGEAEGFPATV

A further assay addresses Exodeoxyribonuclease V (Escherichia coli (strain K12), UniProt P04993+P07648+P08394). As to the kind of experiment: E. coli RecBCD inhibitors, dose response, counter-screen for AddAB inhibitor project, absorbance, V66 E. coli, mutant T4 phage (AID 492957). It is filed as functional, cell-based, Escherichia coli str. K-12 substr. MG1655.
Assay [1] is described as follows: Counterscreen for AddAB inhibitors: absorbance-based bacterial cell-based high throughput dose response assay for inhibitors of bacterial viability. [Related pubchem assays (depositor defined):AID435030, AID449728, AID449731, AID488942, AID488955, AID488956]. It counts as functional. For orientation: A counterscreen serves to expose hits that act by an unwanted route or on another target.

Another assay concerns the target T4, Bcl-2-related protein A1 (Mus musculus, UniProt Q07440).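 Further: confirmatory dose–response counterscreen on Bfl-1, used to check hits from a UBC13 polyubiquitin inhibitor campaign.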
T4 sequence (Q07440 whole entry): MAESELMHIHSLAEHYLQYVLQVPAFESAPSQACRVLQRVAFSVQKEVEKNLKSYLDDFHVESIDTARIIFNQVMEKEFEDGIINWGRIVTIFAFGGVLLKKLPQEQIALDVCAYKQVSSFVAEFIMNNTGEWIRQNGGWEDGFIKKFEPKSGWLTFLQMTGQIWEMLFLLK
It is filed as functional.

Assay [2] addresses T5, Ubiquitin-conjugating enzyme E2 N (Homo sapiens, UniProt P61088).
T5 sequence (P61088 whole entry): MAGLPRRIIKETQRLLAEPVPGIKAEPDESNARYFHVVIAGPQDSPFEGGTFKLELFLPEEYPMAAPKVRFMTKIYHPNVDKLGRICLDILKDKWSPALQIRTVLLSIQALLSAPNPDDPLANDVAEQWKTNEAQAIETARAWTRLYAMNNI
It is filed as functional.

The target in assay [3] is T5, Ubiquitin-conjugating enzyme E2 N. It counts as functional. The source holds these as a separate data set.
In assay [4] the target is T6, Voltage-gated N-type calcium channel alpha-1B subunit/Amyloid beta A4 precursor protein-binding family A member 1 (Homo sapiens, UniProt Q00975+Q02410). It counts as protein assay.
Assay [5] concerns the target T7, Mannose-6-phosphate isomerase (Homo sapiens, UniProt P34949).
T7 sequence (P34949 whole entry): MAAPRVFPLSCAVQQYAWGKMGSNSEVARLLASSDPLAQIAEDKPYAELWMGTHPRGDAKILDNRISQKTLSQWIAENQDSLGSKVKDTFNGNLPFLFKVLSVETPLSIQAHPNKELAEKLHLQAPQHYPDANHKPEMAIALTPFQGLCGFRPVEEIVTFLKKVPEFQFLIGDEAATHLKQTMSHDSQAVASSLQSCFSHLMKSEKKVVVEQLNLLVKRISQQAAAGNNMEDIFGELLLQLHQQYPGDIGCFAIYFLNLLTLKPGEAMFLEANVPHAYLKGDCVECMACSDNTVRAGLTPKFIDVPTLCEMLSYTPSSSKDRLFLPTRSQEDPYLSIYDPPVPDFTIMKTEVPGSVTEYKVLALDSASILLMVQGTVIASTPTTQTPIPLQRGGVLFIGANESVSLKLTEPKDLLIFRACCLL
Description: inhibitors of human PMI, primary screen, biochemical, fluorescence intensity, coupled assay (AID 1209).

Assay [6] concerns the target T6, Voltage-gated N-type calcium channel alpha-1B subunit/Amyloid beta A4 precursor protein-binding family A member 1. It counts as protein assay. The source holds these as a separate data set.
The target in assay [7] is DNA dC->dU-editing enzyme APOBEC-3A (Homo sapiens, UniProt P31941). Description: APOBEC3A DNA deaminase inhibitors, dose response, biochemical (AID 504722). It is filed as functional.
In assay [8] the target is Glucose-6-phosphate 1-dehydrogenase (Homo sapiens, UniProt P11413). As to the kind of experiment: human G6PD enzyme inhibitors, dose response, selectivity assay for P. falciparum G6PD inhibitor project, biochemical, fluorescence (AID 504792). It is filed as functional.
Assay [9] deals with Eukaryotic translation initiation factor 4E (Mus musculus, UniProt P63073). As to the kind of experiment: eIF4E–eIF4G protein interaction inhibitors, dose response, biochemical, TR-FRET (AID 855).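 Further: potency for disrupting eIF4E binding to eIF4GI seen as loss of FRET.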 It is filed as functional. For orientation: In TR-FRET formats the signal depends on donor and acceptor labels being close together.
Assay [10] addresses DNA dC->dU-editing enzyme APOBEC-3G (Homo sapiens, UniProt Q9HC16). As to the kind of experiment: Dose Response confirmation of small molecule APOBEC3G DNA Deaminase Inhibitors via a fluorescence-based single-stranded DNA deaminase assay. [Related pubchem assays (depositor defined):AID493012, AID493028]. It is filed as functional.
The nature of another assay: cells. It counts as functional.
The target in assay [11] is T8, Low molecular weight phosphotyrosine protein phosphatase (Homo sapiens, UniProt P24666).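 Further: Dose-response confirmation assay measuring inhibition of LMPTP enzyme activity by fluorescence intensity read-out.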
T8 sequence (P24666 whole entry): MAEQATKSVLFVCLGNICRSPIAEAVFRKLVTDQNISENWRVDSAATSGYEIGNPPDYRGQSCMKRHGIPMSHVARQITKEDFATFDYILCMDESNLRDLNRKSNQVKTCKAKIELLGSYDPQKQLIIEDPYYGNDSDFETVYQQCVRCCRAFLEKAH
It counts as functional. Particulars: read-out: IC50_Mean.

For the next assay, the target named is Cytochrome P450 3A4 (Homo sapiens, UniProt P08684).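 Further: CYP3A4 tested as one member of a cytochrome P450 panel screen.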

The structures appear in SMILES notation. Activity calls are given as the source filed them.

T6 sequence (Q00975 whole entry): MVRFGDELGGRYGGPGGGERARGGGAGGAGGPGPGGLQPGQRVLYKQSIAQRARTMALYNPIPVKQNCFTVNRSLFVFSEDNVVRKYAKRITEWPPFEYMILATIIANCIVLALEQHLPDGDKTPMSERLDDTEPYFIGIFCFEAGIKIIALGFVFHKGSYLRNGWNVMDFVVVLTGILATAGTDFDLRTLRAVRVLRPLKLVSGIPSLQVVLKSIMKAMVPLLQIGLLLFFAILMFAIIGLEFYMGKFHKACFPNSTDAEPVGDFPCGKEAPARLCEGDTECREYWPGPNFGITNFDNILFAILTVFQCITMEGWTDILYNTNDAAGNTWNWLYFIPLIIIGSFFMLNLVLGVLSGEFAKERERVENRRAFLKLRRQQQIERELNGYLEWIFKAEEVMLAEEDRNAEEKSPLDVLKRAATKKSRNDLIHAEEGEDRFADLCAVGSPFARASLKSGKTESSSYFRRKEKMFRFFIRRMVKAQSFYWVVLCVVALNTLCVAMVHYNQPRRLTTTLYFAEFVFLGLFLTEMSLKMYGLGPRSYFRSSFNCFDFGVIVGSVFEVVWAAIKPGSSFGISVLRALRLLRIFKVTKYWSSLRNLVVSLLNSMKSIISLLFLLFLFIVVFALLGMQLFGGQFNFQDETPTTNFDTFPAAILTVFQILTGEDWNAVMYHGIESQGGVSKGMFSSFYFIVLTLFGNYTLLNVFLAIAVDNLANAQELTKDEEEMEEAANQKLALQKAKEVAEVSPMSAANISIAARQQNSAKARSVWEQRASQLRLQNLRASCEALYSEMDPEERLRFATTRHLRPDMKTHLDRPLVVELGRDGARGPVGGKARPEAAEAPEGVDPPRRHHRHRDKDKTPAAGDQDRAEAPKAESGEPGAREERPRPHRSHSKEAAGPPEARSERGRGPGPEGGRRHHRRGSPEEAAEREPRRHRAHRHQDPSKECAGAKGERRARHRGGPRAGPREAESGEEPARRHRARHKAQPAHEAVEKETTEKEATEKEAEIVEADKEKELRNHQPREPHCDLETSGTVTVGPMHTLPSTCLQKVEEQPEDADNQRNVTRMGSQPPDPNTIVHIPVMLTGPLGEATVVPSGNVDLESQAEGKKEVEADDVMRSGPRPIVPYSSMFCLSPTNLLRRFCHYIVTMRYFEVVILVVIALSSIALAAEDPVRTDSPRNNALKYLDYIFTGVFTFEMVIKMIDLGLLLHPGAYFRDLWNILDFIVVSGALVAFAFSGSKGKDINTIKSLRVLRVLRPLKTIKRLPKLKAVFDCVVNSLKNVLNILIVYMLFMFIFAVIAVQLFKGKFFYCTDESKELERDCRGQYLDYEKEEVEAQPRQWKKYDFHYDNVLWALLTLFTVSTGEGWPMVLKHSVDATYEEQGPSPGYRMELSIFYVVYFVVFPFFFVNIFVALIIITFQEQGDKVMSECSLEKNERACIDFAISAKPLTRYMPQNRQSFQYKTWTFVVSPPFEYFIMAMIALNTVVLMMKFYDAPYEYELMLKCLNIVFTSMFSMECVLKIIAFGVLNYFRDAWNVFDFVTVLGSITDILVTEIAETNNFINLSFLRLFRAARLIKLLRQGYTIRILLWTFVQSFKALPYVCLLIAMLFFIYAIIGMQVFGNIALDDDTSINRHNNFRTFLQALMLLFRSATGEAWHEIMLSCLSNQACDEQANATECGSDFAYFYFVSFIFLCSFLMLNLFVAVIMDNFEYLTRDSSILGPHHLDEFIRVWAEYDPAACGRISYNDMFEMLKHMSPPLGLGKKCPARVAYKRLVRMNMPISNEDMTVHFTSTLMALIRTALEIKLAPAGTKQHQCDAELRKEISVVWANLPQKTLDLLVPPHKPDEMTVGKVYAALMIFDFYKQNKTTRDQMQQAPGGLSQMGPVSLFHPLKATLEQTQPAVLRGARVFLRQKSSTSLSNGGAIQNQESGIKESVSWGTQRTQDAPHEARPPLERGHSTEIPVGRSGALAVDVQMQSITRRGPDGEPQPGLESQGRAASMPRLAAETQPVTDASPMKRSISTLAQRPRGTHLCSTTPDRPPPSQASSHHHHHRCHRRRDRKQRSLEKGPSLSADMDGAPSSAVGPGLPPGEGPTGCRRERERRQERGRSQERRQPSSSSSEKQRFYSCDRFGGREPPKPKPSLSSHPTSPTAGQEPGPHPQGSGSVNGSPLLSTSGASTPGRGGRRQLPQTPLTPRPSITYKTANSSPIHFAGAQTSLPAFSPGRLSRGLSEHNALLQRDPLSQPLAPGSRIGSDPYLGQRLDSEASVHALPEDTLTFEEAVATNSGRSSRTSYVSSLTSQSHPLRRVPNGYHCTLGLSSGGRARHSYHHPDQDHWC
T6 sequence (Q02410 whole entry): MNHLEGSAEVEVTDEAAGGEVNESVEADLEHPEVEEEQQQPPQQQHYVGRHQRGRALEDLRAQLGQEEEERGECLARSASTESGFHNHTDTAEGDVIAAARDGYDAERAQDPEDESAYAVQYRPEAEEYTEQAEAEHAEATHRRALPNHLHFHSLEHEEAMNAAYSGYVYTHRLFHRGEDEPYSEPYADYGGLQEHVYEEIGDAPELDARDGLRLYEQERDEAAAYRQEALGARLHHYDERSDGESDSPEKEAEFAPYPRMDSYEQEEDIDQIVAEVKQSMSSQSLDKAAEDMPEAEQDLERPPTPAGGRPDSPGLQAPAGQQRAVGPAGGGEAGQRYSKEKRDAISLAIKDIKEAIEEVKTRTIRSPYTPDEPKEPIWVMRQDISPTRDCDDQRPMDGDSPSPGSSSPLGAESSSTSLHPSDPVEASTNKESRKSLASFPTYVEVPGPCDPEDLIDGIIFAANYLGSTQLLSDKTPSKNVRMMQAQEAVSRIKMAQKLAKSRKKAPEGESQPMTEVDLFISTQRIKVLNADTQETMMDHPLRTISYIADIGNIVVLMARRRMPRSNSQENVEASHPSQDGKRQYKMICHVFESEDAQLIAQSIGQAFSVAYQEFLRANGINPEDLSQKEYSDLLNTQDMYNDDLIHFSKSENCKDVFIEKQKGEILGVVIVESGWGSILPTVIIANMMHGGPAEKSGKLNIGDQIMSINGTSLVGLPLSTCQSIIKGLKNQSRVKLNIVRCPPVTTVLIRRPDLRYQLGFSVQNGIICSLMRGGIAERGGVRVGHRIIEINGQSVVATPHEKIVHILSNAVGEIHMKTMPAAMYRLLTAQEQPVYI
Sequence of DNA dC->dU-editing enzyme APOBEC-3A (P31941 whole entry): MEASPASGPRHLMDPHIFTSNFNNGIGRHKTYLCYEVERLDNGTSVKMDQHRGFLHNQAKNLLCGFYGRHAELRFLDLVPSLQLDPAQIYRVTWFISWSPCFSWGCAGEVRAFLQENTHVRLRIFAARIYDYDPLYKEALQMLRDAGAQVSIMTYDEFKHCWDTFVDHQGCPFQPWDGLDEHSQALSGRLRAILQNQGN
Sequence of Glucose-6-phosphate 1-dehydrogenase (P11413 whole entry): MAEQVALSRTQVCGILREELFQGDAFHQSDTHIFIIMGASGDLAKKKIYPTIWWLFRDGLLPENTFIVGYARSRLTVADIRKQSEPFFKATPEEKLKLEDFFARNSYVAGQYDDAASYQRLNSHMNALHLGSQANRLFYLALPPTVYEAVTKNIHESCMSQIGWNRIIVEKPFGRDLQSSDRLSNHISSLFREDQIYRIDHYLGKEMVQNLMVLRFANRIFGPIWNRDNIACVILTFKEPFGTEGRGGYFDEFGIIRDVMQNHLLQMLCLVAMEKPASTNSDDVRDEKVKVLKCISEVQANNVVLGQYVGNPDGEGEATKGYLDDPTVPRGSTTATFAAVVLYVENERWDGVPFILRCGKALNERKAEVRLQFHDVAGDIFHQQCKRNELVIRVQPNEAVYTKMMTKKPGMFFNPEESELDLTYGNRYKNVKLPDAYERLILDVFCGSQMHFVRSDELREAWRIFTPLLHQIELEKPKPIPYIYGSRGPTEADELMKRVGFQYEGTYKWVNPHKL
Sequence of DNA dC->dU-editing enzyme APOBEC-3G (Q9HC16 whole entry): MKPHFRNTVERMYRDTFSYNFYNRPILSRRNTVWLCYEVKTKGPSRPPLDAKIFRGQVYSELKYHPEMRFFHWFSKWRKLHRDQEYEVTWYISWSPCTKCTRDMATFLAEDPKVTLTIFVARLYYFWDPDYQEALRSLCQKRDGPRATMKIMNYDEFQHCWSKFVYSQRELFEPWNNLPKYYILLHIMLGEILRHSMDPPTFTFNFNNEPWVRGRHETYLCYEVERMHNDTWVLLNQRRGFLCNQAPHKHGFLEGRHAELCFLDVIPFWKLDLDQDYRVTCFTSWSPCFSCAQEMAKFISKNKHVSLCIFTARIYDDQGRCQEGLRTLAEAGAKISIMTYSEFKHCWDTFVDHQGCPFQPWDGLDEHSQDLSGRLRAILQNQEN
Sequence of Cytochrome P450 3A4 (P08684 whole entry): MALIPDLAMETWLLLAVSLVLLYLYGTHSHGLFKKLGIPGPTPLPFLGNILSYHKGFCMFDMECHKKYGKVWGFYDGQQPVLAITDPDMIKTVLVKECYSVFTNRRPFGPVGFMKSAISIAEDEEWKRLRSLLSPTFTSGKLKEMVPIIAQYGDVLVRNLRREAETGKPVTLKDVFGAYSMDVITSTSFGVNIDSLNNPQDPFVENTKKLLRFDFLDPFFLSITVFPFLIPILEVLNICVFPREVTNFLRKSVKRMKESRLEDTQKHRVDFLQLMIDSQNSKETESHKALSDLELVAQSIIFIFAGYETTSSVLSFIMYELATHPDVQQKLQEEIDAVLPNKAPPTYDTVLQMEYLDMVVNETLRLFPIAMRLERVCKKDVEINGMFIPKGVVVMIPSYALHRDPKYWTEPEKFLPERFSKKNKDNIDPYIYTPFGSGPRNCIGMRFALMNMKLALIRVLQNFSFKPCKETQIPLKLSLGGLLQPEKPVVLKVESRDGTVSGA
Sequence of Eukaryotic translation initiation factor 4E (P63073 whole entry): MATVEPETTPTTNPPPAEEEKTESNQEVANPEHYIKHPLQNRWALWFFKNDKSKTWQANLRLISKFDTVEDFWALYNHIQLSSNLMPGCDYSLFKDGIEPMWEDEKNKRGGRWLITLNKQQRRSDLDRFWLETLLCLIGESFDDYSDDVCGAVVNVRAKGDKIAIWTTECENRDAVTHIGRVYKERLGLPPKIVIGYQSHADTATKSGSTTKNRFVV

Consider `Cc1cc(C2=NN=C(Nc3ccc(S(=O)(=O)N4CCOCC4)cc3)SC2)c(C)n1C`, for which the EC50 was 24.7 µM (inactive) on Hexokinase HKDC1 and 46 µM (inactive) on Hexokinase-1.
As to `Cc1cccc(NC(=O)Cn2cc(C(=O)c3ccco3)c3ccccc32)c1`, the IC50 against Estrogen receptor was > 50 µM (not active); at Exodeoxyribonuclease V it was > 119 µM (inactive); in [1], > 119 µM (inactive).
With `C#CCOCCOCCOCCNc1nc(N2CCN(C(=O)CCCCCCCCCCNC(=O)[C@@H](CCSC)n3cc(CCO)nn3)CC2)nc(N2CCN(C(=O)CCCCCCCCCCNC(=O)[C@H](CCCN=C(N)N)n3cc(C[C@@H](C)CC)nn3)CC2)n1`, the IC50 was 3.08 µM (active) at Bcl-2-related protein A1, 5.55 µM (active) in [2] and 3.03 µM (active) in [3].
For `COc1cc(/N=c2\ssnc2Cl)cc(OC)c1OC`, the IC50 was 10.8 µM (active) in assay [4]; 4.76 µM (active) in assay [5]; 5.22 µM (active) in [6]; > 100 µM (inactive) in [7]; 69.4 µM (inactive) in assay [8]; 20.4 µM (active) in [9]. For the same compound, the IC50 in assay [10] was 7.2 µM (active); in the assay “cells” it was 43.6 µM (active); in [11], 80 µM (inactive). Also, the EC50 is 56.9 µM (inactive) on Hexokinase HKDC1 and 55.3 µM (inactive) on Hexokinase-1. Besides, at Cytochrome P450 3A4, the AC50 was 31.6 µM (inconclusive).

For orientation: EC50 means the concentration that produces a half-maximal response. In general, AC50 refers to the concentration giving half of the maximal activity seen.
